In publication PMC11738990, “A small-molecule TNIK inhibitor targets fibrosis in preclinical and clinical models” (Nature Biotechnology, 2024):
Several values for one entry are separate records, joined by “and”; a condition that tells them apart may be missing. Identical values can stand only once. Like-named read-outs stand apart in the source and are kept apart here.

Columns and labels:
Sprague Dawley rats = experiment: Bleomycin-induced lung fibrosis model, inhalation administration; type: in vivo, rat; settings: individual animals, Fig 4
C57BL/6 mice = experiment: LPS-induced acute lung injury model; type: in vivo, mouse; settings: individual animals, Fig 3E-F;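 note: bronchoalveolar lavage fluid sampled one day after intratracheal LPS challenge, cytokines measured by ELISA in supernatant, lymphocytes counted on Diff-Quick stained cytospin smears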
[1] = tested on: primary lung fibroblasts from donors with IPF; experiment: FMT by α-SMA, high-content analysis; type: cell-based, human; settings: three donors with IPF; read-out: IC50, TGF-β-mediated α-SMA expression
Experimental: For the measurement of FMT by α-SMA, on the first day, human lung-derived primary lung fibroblast cells were seeded. After 2 d, the medium of the cells was refreshed. […] On the eighth day (72 h after triggering), cells were fixed with 4% formaldehyde, stained for α-SMA and with DAPI and then imaged and quantified via high-content analysis (HCA) (IN Cell Analyzer 2200, GE Healthcare).
Segmentation and quantification of α-SMA and FN1 immunoreactivity was carried out with an HCA algorithm, with density × area (D × A) output. Data normalization of raw α-SMA or FN1 (D × A) to percent inhibition values was performed on a plate-to-plate basis.
[…]
μp is the average α-SMA or FN1 value of the positive control (TGF-β1 + 1 μM SB525334). μn is the average α-SMA or FN1 value of the vehicle control (TGF-β1 + 0.1% DMSO). Xi is the compound α-SMA or FN1 value. IC50 values for all compounds (if calculable, based on the point of inflection) were calculated with GraphPad Prism using non-linear fit of log (inhibitor) versus response (four parameter).
DAPI fluorescence was applied for HCA-based quantification of the number of imaged cells on a plate-to-plate basis.
Percent remaining cells = (Xi/μn) × 100%
μn is the average number of nuclei of the vehicle control (TGF-β1 + 0.1% DMSO). Xi is the compound number of nuclei.

[2] = G4 INS018_055 3mpk BID, 3 mg/kg
[3] = G5 INS018_055 10mpk BID, 10 mg/kg
[4] = G7 INS018_055 20mpk QD, 20 mg/kg

## CC(C)n1cnc(-c2ccc(F)cc2)c1-c1nc(C(=O)Nc2ccc(N3CCN(C)CC3)cc2)c[nH]1 [INS018_055, 2-[4-(4-fluorophenyl)-1-(prop-2-yl)imidazol-5-yl]-N-[4-(4-methylhexahydropyrazin-1-yl)phenyl]-1H-imidazole-4-carboxamide]
Healthy subjects; MAD BID 7 d 30 mg N=6
  Any TEAE: 66.7%
Healthy subjects; MAD BID 7 d 60 mg N=6
  Any TEAE: 100.0%
Healthy subjects; MAD BID 7 d 90 mg N=6
  Any TEAE: 100.0%
Healthy subjects; MAD any dose N=18
  Abdominal distension: 5.6%
  Anaemia: 11.1%
  Any TEAE: 88.9%
  Arthralgia: 5.6%
  Basophil count increased: 5.6%
  Blood and lymphatic system disorders: 11.1%
  Blood bilirubin increased: 5.6%
  Blood creatine phosphokinase increased: 5.6%
  Blood fibrinogen decreased: 11.1%
  Blood pressure decreased: 5.6%
  Blood pressure increased: 5.6%
  Cardiac disorders: 5.6%
  Dizziness: 22.2%
  Electrolyte imbalance: 5.6%
  Epistaxis: 11.1%
  Fecal occult positive: 55.6%
  Gastrointestinal disorders: 22.2%
  Haematuria: 16.7%
  Headache: 16.7%
  Hepatic enzyme increased: 5.6%
  Hyperphosphataemia: 5.6%
  Hypertriglyceridaemia: 50.0%
  Hyponatraemia: 5.6%
  Infections and infestations: 5.6%
  Influenza like illness: 27.8%
  Investigations: 77.8%
  Limb discomfort: 0.0%
  Musculoskeletal and connective tissue disorders: 33.3%
  Nasal obstruction: 5.6%
  Nausea: 5.6%
  Nervous system disorders: 38.9%
  Pain in extremity: 27.8%
  Pruritus: 5.6%
  Pyrexia: 11.1%
  Rash: 16.7%
  Renal and urinary disorders: 16.7%
  Respiratory, thoracic and mediastinal disorders: 16.7%
  Sinus bradycardia: 5.6%
  Skin and subcutaneous tissue disorders: 22.2%
  Total bile acids increased: 5.6%
  Vomiting: 5.6%
  White blood cells urine positive: 11.1%
Healthy subjects; SAD 30 mg N=6
  Any TEAE: 83.3%
Healthy subjects; SAD 60 mg N=6
  Any TEAE: 33.3%
Healthy subjects; SAD 120 mg N=6
  Any TEAE: 50.0%
Healthy subjects; SAD any dose N=18
  Any TEAE: 55.6%
  Blood glucose increased: 0.0%
  Blood uric acid increased: 5.6%
  Body temperature increased: 5.6%
  Cardiac disorders: 11.1%
  Fecal occult positive: 27.8%
  Gastrointestinal disorders: 5.6%
  Headache: 5.6%
  Hypertriglyceridaemia: 27.8%
  Hypotension: 5.6%
  Investigations: 33.3%
  Nervous system disorders: 5.6%
  Sinus bradycardia: 11.1%
  Vascular disorders: 5.6%
  White blood cells urine positive: 0.0%
Healthy subjects; in vivo
  Noninfective gingivitis: 5.6%
  Upper respiratory tract infection: 5.6%
Sprague Dawley rats; INS018_055 0.1 mg/mL
  Cdyn: 0.2868 mL/cmH2O and 0.282 mL/cmH2O and 0.2528 mL/cmH2O and 0.2276 mL/cmH2O and 0.2464 mL/cmH2O and 0.2949 mL/cmH2O and 0.266 mL/cmH2O and 0.2918 mL/cmH2O and 0.3725 mL/cmH2O
  FVC: 11.667 and 10.372 and 9.331 and 9.408 and 9.013 and 11.225 and 10.246 and 9.406 and 11.458
  MT staining for fibrosis: 39.4049 and 24.0295 and 21.4518 and 29.9242 and 25.5526 and 41.2629 and 23.5476 and 24.3272 and 18.8851
  Modified Ashcroft Score: 3.58 and 3.5 and 3.67 and 4.67
  RL: 0.2183 cmH2O and 0.2228 cmH2O and 0.249 cmH2O and 0.2763 cmH2O and 0.2553 cmH2O and 0.2139 cmH2O and 0.2369 cmH2O and 0.215 cmH2O and 0.1673 cmH2O
Sprague Dawley rats; INS018_055 0.3 mg/mL
  Cdyn: 0.1877 mL/cmH2O and 0.26 mL/cmH2O and 0.28 mL/cmH2O and 0.2261 mL/cmH2O and 0.2364 mL/cmH2O and 0.2626 mL/cmH2O and 0.2848 mL/cmH2O and 0.214 mL/cmH2O and 0.2795 mL/cmH2O
  FVC: 8.356 and 10.531 and 9.955 and 8.979 and 9.285 and 9.684 and 11.437 and 8.52 and 10.758
  MT staining for fibrosis: 37.0531 and 32.9417 and 33.2766 and 28.9122 and 24.8997 and 24.7844 and 23.0018 and 21.403 and 19.6831
  Modified Ashcroft Score: 3.33 and 3.5 and 3.42 and 3.17 and 3.25
  RL: 0.334 cmH2O and 0.2417 cmH2O and 0.2246 cmH2O and 0.2783 cmH2O and 0.266 cmH2O and 0.2397 cmH2O and 0.2213 cmH2O and 0.2931 cmH2O and 0.2253 cmH2O
Sprague Dawley rats; INS018_055 1 mg/mL
  Cdyn: 0.2887 mL/cmH2O and 0.2534 mL/cmH2O and 0.2831 mL/cmH2O and 0.2977 mL/cmH2O and 0.3373 mL/cmH2O and 0.3256 mL/cmH2O and 0.3052 mL/cmH2O and 0.2663 mL/cmH2O and 0.1759 mL/cmH2O
  FVC: 11.605 and 10.16 and 11.107 and 11.731 and 11.449 and 11.248 and 11.212 and 9.823 and 10.688
  MT staining for fibrosis: 13.0601 and 19.1932 and 11.5913 and 20.3302 and 12.2482 and 5.166 and 2.8883 and 26.6827 and 9.6738
  Modified Ashcroft Score: 3.08 and 2.5 and 1.92 and 1.58
  RL: 0.2246 cmH2O and 0.2544 cmH2O and 0.2308 cmH2O and 0.2117 cmH2O and 0.1856 cmH2O and 0.1933 cmH2O and 0.2063 cmH2O and 0.2431 cmH2O and 0.3604 cmH2O
Sprague Dawley rats; INS018_055 6 mg/mL
  Cdyn: 0.2872 mL/cmH2O and 0.2596 mL/cmH2O and 0.2974 mL/cmH2O and 0.09892 mL/cmH2O and 0.2655 mL/cmH2O and 0.2689 mL/cmH2O and 0.283 mL/cmH2O and 0.2425 mL/cmH2O and 0.303 mL/cmH2O
  FVC: 10.938 and 9.019 and 10.156 and 12.074 and 10.094 and 10.135 and 10.127 and 8.751 and 10.893
  MT staining for fibrosis: 11.7864 and 15.1925 and 36.9642 and 17.393 and 15.0833 and 12.2135 and 12.9504 and 11.5722 and 12.5986
  Modified Ashcroft Score: 2.25 and 3.08 and 3
  RL: 0.2197 cmH2O and 0.2419 cmH2O and 0.2117 cmH2O and 0.6313 cmH2O and 0.2427 cmH2O and 0.2338 cmH2O and 0.2227 cmH2O and 0.2591 cmH2O and 0.2072 cmH2O
C57BL/6 mice; [2]
  IL-1β: 76.808 and 90.9173 and 84.4347 and 88.6293 and 81.7653 and 68.4187 and 91.2987 and 66.512
  IL-4: 44.4779 and 48.864 and 44.3266 and 42.2092 and 40.6967 and 44.6291 and 41.1504 and 43.4191
  IL-6: 23.78 and 22.3 and 25.4 and 24.37 and 27.02 and 28.05 and 25.54 and 22.45
  IL-7: 29.29 and 30.58 and 25.61 and 25.43 and 23.95 and 22.3 and 26.16 and 33.16
  Lymphocytes: 9000 and 7000 and 5750 and 18000 and 15600 and 4800 and 11200 and 5600
  TNF-alpha: 286.33 and 268.83 and 288.52 and 360.7 and 260.08 and 336.64 and 303.83 and 209.77
C57BL/6 mice; [3]
  IL-1β: 66.512 and 53.5467 and 55.0721 and 69.944 and 59.2667 and 64.2241 and 56.5974
  IL-4: 47.5028 and 53.8551 and 49.9227 and 42.8141 and 45.5366 and 45.0828 and 51.2839 and 46.8978
  IL-6: 20.39 and 23.04 and 25.84 and 22.45 and 25.99 and 18.47 and 19.8
  IL-7: 19.9 and 17.14 and 19.72 and 14.2 and 24.69 and 21.38 and 23.4 and 26.72
  Lymphocytes: 19800 and 10350 and 7200 and 6000 and 5400 and 8200 and 6450
  TNF-alpha: 238.21 and 262.27 and 306.02 and 187.89 and 181.33 and 336.64 and 196.64 and 198.83
C57BL/6 mice; G6 INS018_055 6mpk QD, 6 mg/kg
  IL-1β: 71.4694 and 80.24 and 88.248 and 64.6054 and 63.0801 and 87.104 and 80.6214
  IL-4: 42.3604 and 46.7466 and 42.8141 and 44.4779 and 47.9565 and 44.7804 and 48.7128 and 38.7305
  IL-6: 27.31 and 23.19 and 22.45 and 27.76 and 33.8 and 25.99 and 28.93 and 26.87
  IL-7: 27.82 and 30.4 and 27.08 and 33.16 and 21.19 and 31.69 and 25.8 and 28.37
  Lymphocytes: 5200 and 1650 and 3850 and 2700 and 5250 and 5500 and 2600
  TNF-alpha: 290.7 and 236.02 and 376.01 and 218.52 and 330.08 and 244.77 and 391.33 and 310.39
C57BL/6 mice; [4]
  IL-1β: 62.6987 and 77.952 and 78.7147 and 61.5547 and 74.52 and 71.8507 and 60.7921 and 57.3601
  IL-4: 48.1078 and 43.2679 and 48.4103 and 52.3427 and 52.0402 and 44.6291 and 51.7377 and 50.074
  IL-6: 22.74 and 25.84 and 21.71 and 18.17 and 26.58 and 23.63 and 22.15 and 25.69
  IL-7: 16.59 and 21.38 and 22.67 and 18.98 and 27.45 and 24.14 and 31.32 and 16.04
  Lymphocytes: 6500 and 7200 and 8250 and 11600 and 6900 and 1650 and 6100 and 2700
  TNF-alpha: 244.77 and 214.14 and 279.77 and 218.52 and 163.83 and 341.01 and 179.15 and 292.89
[1]
  IC50: 50 nM and 79 nM and 63 nM
